From patent US10646477B1, “5-substituted 2,4-thiazolidinediones (thiohydantoins), pseudothiohydantoins, and propseudothiohydantoins for use as antiviral agents” (Jiva Pharma, Inc., priority 2015, dated 2020)
In brackets after ≈: the same amount, converted by molar mass. Where two headings read alike, the source gives them in different places.

Legend:
[1] = test system: HSV-2; test: CellTiter-Glo (Cytopathic effect/Toxicity) antiviral assay, U of Alabama / NIH; format: cell-based, Herpes simplex virus type 2
Source text: (§1) General Outline of in vitro biology Study: The overall goal of this study was to perform a preliminary evaluation of gross toxicity as well as antiviral effectiveness against HSV-1 and HSV-2, and VZV virus of several pharmaceutical preparations. The HSV-1 and HSV-2 antiviral activity in an in vitro infection system was studied, at the Louisiana State University, Health Sciences System, in New Orleans, and all three above at the University of Alabama, NIAID sponsored laboratories.

[2] = Gross visible toxicity (CC50), 48 hour continuous treatment, LSU; format: cell-based; details: African green monkey, Vero cell monolayers, tested at L (LSU-HSC)
Source text: as §1

[3] = CellTiter-Glo toxicity (CC50), U of Alabama / NIH
[4] = test system: HSV-2; test: Viral yield reduction assay relative to mock treated controls, LSU; format: cell-based, Herpes simplex virus type 2
Source text: as §1
(§2) The yield reduction assay (YRA) was used in determining antiviral activity of test compounds such as JIVA Compounds, controls and standards. The virus yield reduction assay is a powerful technique for evaluating the efficacy of antiviral compounds. Monolayer cultures of mammalian cells were grown in 96-well microliter tissue culture plates and infected with virus. Test compounds were added and serially diluted directly with the plates. Following a cycle of virus replication, culture lysates were made and serially diluted in a separate set of uninfected cultures grown in microliter plates. The cultures were incubated, plaques were enumerated in wells containing […] plaques, and virus titers were calculated.

[5] = test system: HSV-1; test: CellTiter-Glo (Cytopathic effect/Toxicity) antiviral assay, U of Alabama / NIH; format: cell-based, Herpes simplex virus type 1
Source text: as §1

[6] = test system: HSV-1 McKrae; test: McKrae viral yield reduction assay relative to mock treated controls, LSU; format: cell-based, Herpes simplex virus type 1
Source text: as §1, §2

[7] = Aqueous solubility; format: physicochemical; details: water; at 3° C.
[8] = test system: HSV-2; test: Plaque reduction and virus yield reduction assay (FIGS. 1-6); format: cell-based, Herpes simplex virus type 2; set-up: Mean virus titer: unit not given here
Experimental: as §2
(§3) The concentrations were done in duplicate ranging from 1 mM to 10 mM and the average value is plotted for each concentration. At 2 days post infection the number of plaques were counted. The next day, the wells were collected (media and cells) and titered in a plaque assay.

[9] = test system: VZV; test: CellTiter-Glo (Cytopathic effect/Toxicity) antiviral assay, U of Alabama / NIH; format: cell-based, Varicella zoster virus; details: for activity against the Varicella-Zoster virus: primary assays at the NIH
Source text: as §1

[10] = test system: cells; test: Toxicity to the cells seen in the plaque reduction assay (FIG. 1); format: cell-based
Experimental: as §3
FIG. 1: Both Compound 2 (JIVA-0042) and Compound 3 (JIVA-005) appeared to show toxicity at 10 mM, so even if the graphs show almost 100% reduction at this concentration, it is due to toxicity, perhaps cytostatic inhibition of the cells and thus very few or small plaques were observed. However, by 5 mM of Compound 2 (JIVA-0042), the cells look good (no toxicity) and >95% plaque reduction for Compound 2 and a 50% reduction for Compound 3 (JIVA-005), with the plaques still smaller than the control no drug plaques.

[11] = test system: Vero cell monolayers; test: Gross visible toxicity (CC50), 48 hour continuous treatment, LSU; format: cell-based; details: tested at L (LSU-HSC)
Source text: as §1

[12] = test system: HSV-2; test: In vitro HSV-2 tests using published formulations of 1-docosanol with surfactants; format: cell-based, Herpes simplex virus type 2; details: published formulations with various surfactants
Source text: The alcohol intermediate, cis,cis,cis,cis,cis,cis-4,7,10,13,16,19-docosahexaenoic-1-ol obtained by reduction of DHA in the above series has the same chain-length as 1-docasonol, but has six conjugated-cis-double bonds for a stiff, elongated backbone, in contrast to a floppy backbone in saturated 1-docasanol.

[13] = cited from earlier work
[14] = test system: cold sores caused by the herpes simplex virus; details: OTC cream; cited from earlier work
[15] = test system: HSV-2; test: Viral yield reduction assay (YRA), Cincinnati Children's Hospital Medical Center; format: cell-based, Herpes simplex virus type 2
Experimental: as §2
(§4) Another advantage was noted of thiazolidinedione compounds in Formula (I) where R is H, and R1 is an omega-3 PUFA derivative derived from DHA, EPA or ALA were provided to the Cincinnati Children's Hospital Medical Center, for in vitro HSV-2 antiviral activity by the viral yield reduction assay method, (YRA). […] For the DHA derived (JIVA-004), a ^˜44% reduction in virus yield was detected at 0.1 mM, and 22% reduction was detected at 0.01 mM. […] The more water soluble sodium salt of JIVA-004, in the YRA method, was toxic at the highest concentrations tested (10 mM to 7.5 mM).

[16] = test system: healthy cells; format: cell-based
Experimental: as §4

[17] = Human alphaherpesvirus 2, HSV-2, tested at A (U of Alabama), read-out: EC50
[18] = CC50, HSV-1 line, tested at A (U of Alabama)
[19] = CC50, HSV-2 line, tested at A (U of Alabama)
[20] = Human alphaherpesvirus 2, HSV-2, tested at L (LSU-HSC), read-out: EC50
[21] = Human alphaherpesvirus 1, HSV-1, tested at A (U of Alabama), read-out: EC50
[22] = Human alphaherpesvirus 1, HSV-1, tested at L (LSU-HSC), read-out: EC50
[23] = 10 mM, said to be due to toxicity
[24] = CC50, VZV line, tested at A (U of Alabama)
[25] = VZV, tested at A (U of Alabama), read-out: EC50
[26] = VZV line, tested at A (U of Alabama)
[27] = HSV-2, tested at L (LSU-HSC), read-out: EC50
[28] = HSV-1, tested at L (LSU-HSC), read-out: EC50

SMILES: N=C(N)SC(C(=O)O)c1ccccc1 (centres unmarked) [JIVA-0045, RS-2-[Amino(imino)methylsulfenyl]-2-phenylacetic acid]
- EC50 [1, 17]: > 150 µM
- CC50 at 48 h ([2]; HSV-1 line): 3600 µM
- CC50 at 48 h ([2]; HSV-2 line): 3600 µM
- CC50 [3, 18]: > 150 µM
- CC50 [3, 19]: > 150 µM
- melting point: 230 °C (dec.)
- EC50 [4, 20]: ~750 µM
- EC50 [5, 21]: > 150 µM
- EC50 [6, 22]: 238 µM

SMILES: O=C1CSC(=O)N1 [JIVA-0042, 2,4-Thiazolidinedione]
- solubility [7]: 30 mg/mL (≈ 256 mM)
- EC50 ([1]; Human alphaherpesvirus 2): > 150 µM
- antiviral effect ([8]; 1 mM): no antiviral effect
- reduction in virus yield ([8]; 2.5 mM): 30%
- plaque reduction ([8]; 5 mM): > 95%
- plaque reduction [8, 23]: ~100%
- EC50 ([8]; Human alphaherpesvirus 2, read-out: calculated EC50): 2930 µM
- inhibition at 5000 µM ([8]; Human alphaherpesvirus 2, read-out: inhibition that can be contributed to Compound 2 activity): ~45%
- EC50 ([9]; Human alphaherpesvirus 3): > 30 µM
- CC50 at 48 h ([2]; HSV-1 line): > 14000 µM
- CC50 at 48 h ([2]; HSV-2 line): > 14000 µM
- CC50 [3, 18]: > 150 µM
- CC50 [3, 19]: > 150 µM
- CC50 [3, 24]: 80 µM
- EC50 ([4]; Human alphaherpesvirus 2): 1880 µM
- EC50 ([5]; Human alphaherpesvirus 1): > 150 µM
- EC50 ([6]; Human alphaherpesvirus 1): ~625 µM
- toxicity ([10]; 5 mM): no toxicity
- toxicity ([10]; 10 mM): toxicity

SMILES: N=C1NC(=O)C(c2ccccc2Cl)S1 (centres unmarked) [JIVA-0046, RS-2-Imino-5-(2′-chlorophenyl) thiazolidine-4-one]
- EC50 [1, 17]: > 150 µM
- CC50 at 48 h ([2]; HSV-1 line): ~1000 µM
- CC50 at 48 h ([2]; HSV-2 line): ~1000 µM
- CC50 [3, 18]: > 150 µM
- CC50 [3, 19]: > 150 µM
- melting point: 244 to 246 °C
- EC50 [4, 20]: ~1000 µM
- EC50 [5, 21]: > 150 µM
- EC50 [6, 22]: 2000 µM

SMILES: CC1SC(=N)NC1=O (centres unmarked) [JIVA-0044, RS-2-Imino-5-methylthiazolidine-4-one]
- EC50 [1, 17]: > 150 µM
- CC50 at 48 h ([2]; HSV-1 line): > 39000 µM
- CC50 at 48 h ([2]; HSV-2 line): > 39000 µM
- CC50 [3, 18]: > 150 µM
- CC50 [3, 19]: > 150 µM
- melting point: 224 to 228 °C (dec.)
- EC50 [4, 20]: 1400 µM
- EC50 [5, 21]: > 150 µM
- EC50 [6, 22]: 1420 µM

SMILES: CN(C)C(=N)NC(=N)N.O=C1CSC(=O)N1 [JIVA-005]
- EC50 ([1]; HSV-2, tested at A (U of Alabama), read-out: EC50): > 150 µM
- Mean virus titer ([8]; 1 mM): 6.24
- Mean virus titer ([8]; 2.5 mM): 5.90
- reduction in virus yield ([8]; 2.5 mM): very little reduction
- Mean virus titer ([8]; 5 mM): 4.92
- plaque reduction ([8]; 5 mM): 50%
- Mean virus titer ([8]; 7.5 mM): 3.86
- Mean virus titer ([8]; 10 mM): 2.87
- plaque reduction [8, 23]: ~100%
- EC50 ([8]; Excel, best fit line (FIGS. 4 and 5), read-out: estimated EC50): ~4000 µM
- EC50 ([8]; Prism program (FIG. 6), read-out: calculated EC50): 5040 µM
- EC50 [9, 25]: 0.09 µM
- activity against the Varicella-Zoster virus [9]: highly active
- CC50 ([11]; HSV-2 line): > 10000 µM
- CC50 ([3]; HSV-1 line, tested at A (U of Alabama)): > 150 µM
- CC50 ([3]; HSV-2 line, tested at A (U of Alabama)): > 150 µM
- CC50 [3, 26]: > 150 µM
- EC50 [4, 27]: ~700 µM
- EC50 ([5]; HSV-1, tested at A (U of Alabama), read-out: EC50): > 150 µM
- EC50 [6, 28]: ~625 µM
- toxicity ([10]; 10 mM): toxicity

SMILES: NC1=NC(=O)CS1 [JIVA-0048, Pseudothiohydantoin]
- CC50 ([11]; HSV-1 line): 19400 µM
- CC50 ([11]; HSV-2 line): 19400 µM
- EC50 [4, 27]: 76 µM
- EC50 [6, 28]: 296 µM

SMILES: CC/C=C\C/C=C\C/C=C\C/C=C\C/C=C\C/C=C\CCCO [DHA derived primary alcohol, cis,cis,cis,cis,cis,cis-4,7,10,13,16,19-docosahexaenoic-1-ol]
- antiviral activity [12]: ineffective

SMILES: CN(C)C(=N)NC(=N)N.Cl [Met.HCl, 1,1-dimethylbiguanide hydrochloride, reference compound]
- Mean virus titer ([8]; 1 mM): 5.98
- Mean virus titer ([8]; 2.5 mM): 6.05
- Mean virus titer ([8]; 5 mM): 5.76
- Mean virus titer ([8]; 7.5 mM): 4.97
- Mean virus titer ([8]; 10 mM): 4.32
- EC50 ([8]; Human alphaherpesvirus 2, read-out: estimated EC50): ~5000 µM

SMILES: CCCCCCCCCCCCCCCCCCCCCCO [1-docosanol, 1-Docosanol]
- aqueous solubility [13]: near zero
- mean time of healing [14]: 4.1 days
- antiviral activity [12]: ineffective

SMILES: N=C(N)SC(F)C(=O)O (centres unmarked) [JIVA-0043, RS-(Carbamimidoylsulfanyl)(fluoro)acetic acid]
- EC50 [1, 17]: > 150 µM
- EC50 ([9]; Human alphaherpesvirus 3, VZV, tested at A (U of Alabama), read-out: EC50): < 0.05 µM
- activity against the Varicella-Zoster virus [9]: highly active
- CC50 at 48 h ([2]; HSV-1 line): ~1000 µM
- CC50 at 48 h ([2]; HSV-2 line): > 1000 µM
- CC50 [3, 18]: > 150 µM
- CC50 [3, 19]: > 150 µM
- CC50 [3, 24]: > 150 µM
- melting point: 178 °C
- EC50 [4, 20]: > 150 µM
- EC50 [5, 21]: > 150 µM
- EC50 [6, 22]: > 150 µM

SMILES: CN(C)C(=N)NC(=N)N.N=C1NC(=O)CS1 [JIVA-0049, Pseudothiohydantain Metforminate]
- EC50 [9, 25]: < 0.05 µM
- activity against the Varicella-Zoster virus [9]: highly active
- CC50 ([3]; HSV-1 line, tested at N (NIH)): > 300 µM
- CC50 [3, 26]: ≥ 150 µM
- EC50 ([5]; HSV-1, tested at N (NIH), read-out: EC50): > 300 µM

SMILES: CC/C=C\C/C=C\C/C=C\C/C=C\C/C=C\C/C=C\CCCC1SC(=O)NC1=O (centres unmarked) [JIVA-004, RS-5-((4Z,7Z,10Z,13Z,16Z,19Z)docosa-4,7,10,13,16,19-hexaen-1-yl)thiazolidine-2,4-dione]
- reduction in virus yield ([15]; 0.01 mM): 22%
- reduction in virus yield ([15]; 0.1 mM): ~44%
- conservative estimated toxicity index CC50 [16]: 300 µM
